{
  "source": "patent US5573772A",
  "about": "“Methods for protecting tissues and organs from ischemic damage” (priority 1994, dated 1996)",
  "test_system": "rabbit heart",
  "assay": "Infarct size in isolated rabbit hearts, A3-receptor mediation of preconditioning, Example 3",
  "method": "New Zealand white rabbits of either sex, between 1.4-2.4 kg, were anesthetized with intravenous sodium pentobarbital (30 mg/kg). The neck was opened and a tracheotomy was performed. The rabbits were ventilated with 100% oxygen via a positive pressure respirator (MD industries, Mobile, Ala.). Ventilation rate was 30-35 breaths per minute, and tidal volume was approximately 15 ml. A left thoracotomy was performed in the fourth intercostal space and pericardium was opened to expose the heart. A 2-0 silk suture with an RB taper needle was passed around a branch of the left coronary artery, and the end of the silk were threaded through a small vinyl tube to form a snare. The heads were quickly excised and mounted on a Langendorff apparatus and perfused at constant pressure with Krebs buffer containing (in mM) 118.5 NaCl, 4.7 KCl, 1.2 MgSO4, 1.2 K2 PO4, 24.3 NaHCO3, 2.5 CaCl2 and 10 glucose. […] The temperature of the perfusate was maintained at 37° C. The perfusion pressure was kept at 75 mm Hg. Pacing electrodes were placed on the right atrium and all hearts were paced at 200 beats/minute with pulses of 5 volts and 4 msec duration to keep the heart rate constant. A fluid-filled latex balloon connected to a transducer via PE240 tubing was inserted into the left ventricle. Balloon volume was adjusted to set the left ventricular diastolic pressure at 10 mm Hg at the beginning of the experiment. Total coronary artery flow was measured by timed collection of buffer from the chamber into a graduated cylinder. Regional ischemia was effected by pulling the snare tight and clamping the tube with a hemostat. Global ischemia was performed by clamping the inflow tubing of the Langendorff apparatus. Reperfusion was achieved by releasing the restriction. All hearts were allowed to equilibrate for 20 minutes before the experiments were started. Heart rate (HR), coronary flow (CF) and left ventricular developed pressure (LVDP) were recorded at the point just before and at the end of each treatment with the pacing momentarily turned off. […] The hearts were removed from the Langendorff apparatus, weighed and then frozen. The hearts were cut into 2 mm transverse slices. The slices were thawed and incubated in 1% triphenyl tetrazolium chloride (TTC) in pH 7.4 buffer for 20 minutes at 37° C. TTC reacts with NADH and dehydrogenase enzymes and stains all tissue still having them to a deep red color. […] After staining, the area of infarcted tissue (TTC negative tissue) and the risk zone (area lacking fluorescence under ultraviolet light) in each slice were traced. The area of infarct and risk zone were determined by planimetry of the tracing. The volume of infarcted myocardium and myocardium at risk was then calculated by multiplying the planimetered areas by the slice thickness. The methods utilized in this example are identical to those described in Example 1. All hearts received 30 minutes of regional ischemia as described in Example 1. The control group (n=8) hearts received only 30 minutes of ischemia. Preconditioned (PC) hearts (n=10) received 5 minutes of global ischemia and 10 minutes of reperfusion prior to the regional ischemia. Adenosine (ADO) treated hearts (n=6) received 10 μM adenosine for 5 minutes prior to regional ischemia. APNEA treated hearts (n=6) received 65 μM APNEA for 5 minutes prior to regional ischemia. In groups receiving the nonselective adenosine blocker, 8-SPT, the blocker was included in the perfusate for 15 minutes at 100 μM starting 5 minutes before the exposure of ADO (ADO-SPT group, n=6), or APNEA (APNEA-SPT group, n=6 ) or 5 minutes before and after 5 minutes of preconditioning ischemia (PC-SPT group, n=5). […] For the PC-BW group (n=5), the A3-receptor antagonist, BW A1433, [Linden J, et al., Molecular Pharmacology 44:524-532 (1993)], was administered at a dose of 200 nM in the perfusate for 5 minutes before and 5 minutes after PC ischemia.",
  "data": [
    {"compound": "Cn1c(=O)c2[nH]c(-c3ccc(S(=O)(=O)O)cc3)nc2n(C)c1=O", "note": "[SPT, 8-(p-Sulfophenyl)-theophylline]", "values": [
      {"measurement": "Infarct size (of the risk area)", "setting": "8-SPT 100 μM + ADO", "result": "29.8±3.7", "unit": "%"},
      {"measurement": "Infarct size (of the risk area)", "setting": "8-SPT 100 μM + APNEA", "result": "30.3±3.3", "unit": "%"},
      {"measurement": "Infarct size (of the risk area)", "setting": "8-SPT 100 μM + PC", "result": "33.8±2.7", "unit": "%"}
    ]},
    {"compound": "Nc1ccc(CCNc2ncnc3c2ncn3[C@@H]2O[C@H](CO)[C@@H](O)[C@H]2O)cc1", "note": "[APNEA, N^6-(2-(4-aminophenyl)ethyl) adenosine]", "values": [
      {"measurement": "Infarct size (of the risk area)", "setting": "APNEA 65 μM (so in the source), 5 minutes, control 32.2±1.5%", "result": "12.6±2.2", "unit": "%"}
    ]},
    {"compound": "CCCn1c(=O)c2[nH]c(C3CCCC3)nc2n(CCC)c1=O", "note": "[DPCPX, 8-cyclopentyl-1,3-dipropylxanthine]", "values": [
      {"measurement": "Infarct size (of the risk area)", "setting": "DPCPX 200 nM + ADO", "result": "14.4±2.8", "unit": "%"},
      {"measurement": "Infarct size (of the risk area)", "setting": "DPCPX 200 nM + APNEA", "result": "8.7±1.7", "unit": "%"},
      {"measurement": "Infarct size (of the risk area)", "setting": "DPCPX 200 nM + PC", "result": "15.6±7.8", "unit": "%"}
    ]},
    {"compound": "Nc1ncnc2c1ncn2[C@@H]1O[C@H](CO)[C@@H](O)[C@H]1O", "note": "[ADO, Adenosine]", "values": [
      {"measurement": "Infarct size (of the risk area)", "setting": "ADO 10 μM, 5 minutes, control 32.2±1.5%, PC 8.8±2.3%", "result": "11.4±2.3", "unit": "%"}
    ]}
  ]
}
